Measurements reported in US8263605B2, “Modulators of muscarinic receptors” (Vertex Pharmaceutical Incorporated, priority 2006, dated 2012).

Experiments:
M1 muscarinic receptor = target: T1, M1 muscarinic receptor (Homo sapiens, UniProt P11229); test: Functional mobilization of intracellular calcium (FLIPR), M1-CHO cells; format: cell-based; details: for Emax: 100% efficacy is the maximum response obtained with the Carbachol control; for M1 Activity: CHO cells expressing M1, calcium mobilization
T1 construct: expressed in transfected cells; host or cells: CHO (M1-CHO)
T1 sequence (P11229 1-460): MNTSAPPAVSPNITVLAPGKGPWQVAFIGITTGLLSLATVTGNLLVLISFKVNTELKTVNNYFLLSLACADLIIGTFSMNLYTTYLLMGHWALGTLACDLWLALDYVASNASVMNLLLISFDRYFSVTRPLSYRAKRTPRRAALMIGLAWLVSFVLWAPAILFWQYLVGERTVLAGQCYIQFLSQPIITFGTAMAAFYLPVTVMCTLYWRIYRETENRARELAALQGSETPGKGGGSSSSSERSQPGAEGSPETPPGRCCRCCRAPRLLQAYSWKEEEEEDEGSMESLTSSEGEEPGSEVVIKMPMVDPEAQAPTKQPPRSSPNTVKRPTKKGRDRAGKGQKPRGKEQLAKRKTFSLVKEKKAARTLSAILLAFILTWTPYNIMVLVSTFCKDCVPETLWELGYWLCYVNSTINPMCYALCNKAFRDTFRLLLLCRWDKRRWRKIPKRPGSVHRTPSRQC
Method in brief: (§1)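 Recombinant CHO cells loaded with Fluo-3 AM or Calcium 3 dye; fluorescence recorded 60 s on FLIPR in pH 7.4 buffer with 1 mM probenecid, 0.5% DMSO. Agonist mode: compound alone; antagonist mode: 15 min preincubation (or co-application) then carbachol at EC80. Efficacy relative to maximal carbachol response.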

M4 muscarinic receptor = target: T2, M4 muscarinic receptor (Homo sapiens, UniProt P08173); test: Functional mobilization of intracellular calcium (FLIPR), M4-CHO cells; format: cell-based; details: for Emax: 100% efficacy is the maximum response obtained with the Carbachol control; for M4 Activity: CHO cells expressing M4, calcium mobilization
T2 construct: expressed in transfected cells; host or cells: CHO (M4-CHO)
T2 sequence (P08173 1-479): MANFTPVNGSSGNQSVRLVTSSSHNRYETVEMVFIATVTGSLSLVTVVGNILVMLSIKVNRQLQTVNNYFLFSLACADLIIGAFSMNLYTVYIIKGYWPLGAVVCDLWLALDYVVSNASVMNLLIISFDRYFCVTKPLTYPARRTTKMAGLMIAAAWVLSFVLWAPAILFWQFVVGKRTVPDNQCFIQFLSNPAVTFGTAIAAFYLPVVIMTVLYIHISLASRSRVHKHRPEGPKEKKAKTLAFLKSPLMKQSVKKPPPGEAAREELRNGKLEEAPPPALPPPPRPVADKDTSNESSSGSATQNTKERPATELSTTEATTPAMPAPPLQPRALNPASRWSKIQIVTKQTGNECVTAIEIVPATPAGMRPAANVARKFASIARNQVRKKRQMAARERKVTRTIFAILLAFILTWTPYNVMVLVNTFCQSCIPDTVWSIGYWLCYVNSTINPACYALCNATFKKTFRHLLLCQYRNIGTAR
Method in brief: as §1

Row | Compound | Emax (M1 muscarinic receptor) | M1 Activity (M1 muscarinic receptor) | Emax (M4 muscarinic receptor) | M4 Activity (M4 muscarinic receptor)
1 | CCOC(=O)N1CCCC(N2CCC3(CC2)CN(C(=O)N(C)C)c2ccccc23)CC1 (stereo not shown) [compound 68] | 25 to 100% | +++ (activity was measured to be less than 2.0 μM) | > 100% | +++ (activity was measured to be less than 2.0 μM)
2 | CCCOC(=O)N1CCCC(N2CCC3(CC2)CN(C(=O)N(C)C)c2ccccc23)CC1 (stereo not shown) [compound 69] | 25 to 100% | +++ (activity was measured to be less than 2.0 μM) | 25 to 100% | +++ (activity was measured to be less than 2.0 μM)
3 | CC(C)OC(=O)N1CCCC(N2CCC3(CC2)CN(C(=O)N(C)C)c2ccccc23)CC1 (stereo not shown) [compound 70] | 25 to 100% | ++ (activity was measured to be from 2.0 μM to 10.0 μM) | 25 to 100% | +++ (activity was measured to be less than 2.0 μM)
4 | CN(C)C(=O)N1CC2(CCN(C3CCCN(C(=O)OCC(F)F)CC3)CC2)c2ccccc21 (stereo not shown) [compound 71] | 25 to 100% | +++ (activity was measured to be less than 2.0 μM) | 25 to 100% | +++ (activity was measured to be less than 2.0 μM)
5 | COCCOC(=O)N1CCCC(N2CCC3(CC2)CN(C(=O)N(C)C)c2ccccc23)CC1 (stereo not shown) [compound 72] | 25 to 100% | +++ (activity was measured to be less than 2.0 μM) | 25 to 100% | +++ (activity was measured to be less than 2.0 μM)
6 | CN(C)C(=O)N1CC2(CCN(C3CCCN(C(=O)O[C@@H]4CCOC4)CC3)CC2)c2ccccc21 (stereo partly shown) [compound 73] | < 25% | ++ (activity was measured to be from 2.0 μM to 10.0 μM) | 25 to 100% | +++ (activity was measured to be less than 2.0 μM)
7 | Cc1nsc(C2CCC(N3CCC4(CC3)CN(C(=O)N(C)C)c3ccccc34)CC2)n1 (stereo not shown) [compound 74] | 25 to 100% | +++ (activity was measured to be less than 2.0 μM) | 25 to 100% | +++ (activity was measured to be less than 2.0 μM)
8 | CN(C)C(=O)N1CC2(CCN(C3CCN(c4ncns4)CC3)CC2)c2ccccc21 [compound 75] | 25 to 100% | ++ (activity was measured to be from 2.0 μM to 10.0 μM) | 25 to 100% | +++ (activity was measured to be less than 2.0 μM)
9 | CCc1nsc(N2CCC(N3CCC4(CC3)CN(C(=O)N(C)C)c3ccccc34)CC2)n1 [compound 76] | > 100% | +++ (activity was measured to be less than 2.0 μM) | > 100% | +++ (activity was measured to be less than 2.0 μM)
10 | CN(C)C(=O)N1CC2(CCN(C3CCN(c4cncc(Cl)n4)CC3)CC2)c2ccccc21 [compound 77] | 25 to 100% | +++ (activity was measured to be less than 2.0 μM) | 25 to 100% | +++ (activity was measured to be less than 2.0 μM)
11 | CN(C)C(=O)N1CC2(CCN(C3CCN(c4cnc5ccccc5n4)CC3)CC2)c2ccccc21 [compound 78] | 25 to 100% | +++ (activity was measured to be less than 2.0 μM) | 25 to 100% | +++ (activity was measured to be less than 2.0 μM)
12 | Cc1cncc(N2CCC(N3CCC4(CC3)CN(C(=O)N(C)C)c3ccccc34)CC2)n1 [compound 79] | 25 to 100% | +++ (activity was measured to be less than 2.0 μM) | 25 to 100% | +++ (activity was measured to be less than 2.0 μM)
13 | COC(=O)N1CCCC(N2CCC3(CC2)CN(C(=O)N(C)C)c2ccccc23)CCC1 [compound 80] | 25 to 100% | +++ (activity was measured to be less than 2.0 μM) | > 100% | +++ (activity was measured to be less than 2.0 μM)
14 | CCOC(=O)N1CCC(C)(N2CCC3(CC2)CN(C(=O)N(C)C)c2ccccc23)CC1 [compound 81] | 25 to 100% | +++ (activity was measured to be less than 2.0 μM) | 25 to 100% | +++ (activity was measured to be less than 2.0 μM)
15 | CN(C)C(=O)N1CC2(CCN(C3(C)CCN(c4cnccn4)CC3)CC2)c2ccccc21 [compound 82] | 25 to 100% | ++ (activity was measured to be from 2.0 μM to 10.0 μM) | 25 to 100% | +++ (activity was measured to be less than 2.0 μM)
16 | Cc1nsc(N2CC[C@H](CN3CCC4(CC3)CN(C(=O)N(C)C)c3ccccc34)C2)n1 [compound 83] | 25 to 100% | ++ (activity was measured to be from 2.0 μM to 10.0 μM) | 25 to 100% | +++ (activity was measured to be less than 2.0 μM)
17 | CCc1nsc(N2CC[C@H](CN3CCC4(CC3)CN(C(=O)N(C)C)c3ccccc34)C2)n1 [compound 84] | 25 to 100% | +++ (activity was measured to be less than 2.0 μM) | 25 to 100% | +++ (activity was measured to be less than 2.0 μM)
18 | Cc1nsc(N2CC[C@@H](CN3CCC4(CC3)CN(C(=O)N(C)C)c3ccccc34)C2)n1 [compound 85] | 25 to 100% | +++ (activity was measured to be less than 2.0 μM) | > 100% | +++ (activity was measured to be less than 2.0 μM)
19 | CCc1nsc(N2CC[C@@H](CN3CCC4(CC3)CN(C(=O)N(C)C)c3ccccc34)C2)n1 [compound 86] | 25 to 100% | +++ (activity was measured to be less than 2.0 μM) | 25 to 100% | +++ (activity was measured to be less than 2.0 μM)
20 | Cc1ncc(N2CC[C@H](CN3CCC4(CC3)CN(C(=O)N(C)C)c3ccccc34)C2)nc1C [compound 87] | < 25% | + (activity was measured to be greater than 10.0 μM) | 25 to 100% | +++ (activity was measured to be less than 2.0 μM)
21 | Cc1ncc(N2CCC(N3CCC4(CC3)CN(C(=O)N(C)C)c3ccccc34)CC2)nc1C [compound 88] | 25 to 100% | ++ (activity was measured to be from 2.0 μM to 10.0 μM) | 25 to 100% | +++ (activity was measured to be less than 2.0 μM)
22 | CN(C)C(=O)N1CC2(CCN(C3CCN(c4nncs4)CC3)CC2)c2ccccc21 [compound 89] | < 25% | ++ (activity was measured to be from 2.0 μM to 10.0 μM) | 25 to 100% | ++ (activity was measured to be from 2.0 μM to 10.0 μM)
23 | CN(C)C(=O)N1CC2(CCN(C3CCN(c4nccs4)CC3)CC2)c2ccccc21 [compound 90] | 25 to 100% | ++ (activity was measured to be from 2.0 μM to 10.0 μM) | 25 to 100% | ++ (activity was measured to be from 2.0 μM to 10.0 μM)
24 | Cc1csc(N2CCC(N3CCC4(CC3)CN(C(=O)N(C)C)c3ccccc34)CC2)n1 [compound 91] | 25 to 100% | ++ (activity was measured to be from 2.0 μM to 10.0 μM) | 25 to 100% | +++ (activity was measured to be less than 2.0 μM)
25 | C#CCOC(=O)N1CCC(N2CCC3(CC2)CN(C(=O)N(C)C)c2ccccc23)CC1 [compound 92] | > 100% | +++ (activity was measured to be less than 2.0 μM) | > 100% | +++ (activity was measured to be less than 2.0 μM)
